For 6 molecules, IC50 results are on record in patent US9765074B2, “Inhibitors of the renal outer medullary potassium channel” (Merck Sharp & Dohme Corp., priority 2013, dated 2017).

Structures are written as SMILES.

In general, IC50 refers to the concentration at which inhibition is half-maximal. A low value points to greater potency in that assay.

This experiment has as its target T1, hROMK (hKir1.1) (Homo sapiens, UniProt P48048).
T1 construct: expressed in transfected cells
T1 sequence (P48048 1-391): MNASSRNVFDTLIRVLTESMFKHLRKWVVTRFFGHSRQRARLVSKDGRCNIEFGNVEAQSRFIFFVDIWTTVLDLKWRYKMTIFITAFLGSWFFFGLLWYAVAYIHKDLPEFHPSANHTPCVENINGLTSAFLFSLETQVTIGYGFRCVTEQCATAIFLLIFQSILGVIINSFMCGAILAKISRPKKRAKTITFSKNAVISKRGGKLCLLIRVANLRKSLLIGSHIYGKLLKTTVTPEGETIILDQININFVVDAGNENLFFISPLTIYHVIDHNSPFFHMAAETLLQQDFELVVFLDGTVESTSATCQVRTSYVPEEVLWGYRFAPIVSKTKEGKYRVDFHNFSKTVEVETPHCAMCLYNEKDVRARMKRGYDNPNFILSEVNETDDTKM
Put plainly: Thallium Flux Assay (ROMK channel functional thallium flux, FLIPR-Tetra). The class given is cell-based. The following applies: HEK293 cells stably expressing hROMK (hKir1.1); 30 min compound incubation. In a few lines:
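HEK293 cells stably expressing hKir1.1, loaded with FluxOR dye for 90 min, then preincubated with compound for 30 min at ambient temperature with 0.3 mM ouabain and probenecid. Stimulated with 3 mM thallium/0.3 mM potassium (final); fluorescence read ~10 min. Normalized to 3 μM reference ROMK inhibitor; IC50 from inhibition of flux.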
With `CO[C@@H](CN1CCC2(CC1)CCN(C1=C(C)C(=O)OC1)C2=O)c1ccc(-n2cnnn2)cn1` [Example 282, 8-{(2S)-2-methoxy-2-[5-(1H-tetrazol-1-yl)pyridin-2-yl]ethyl}-2-(4-methyl-5-oxo-2,5-dihydrofuran-3-yl)-1-oxo-2-aza-8-azoniaspiro[4.5]decane], it took 70 nM to reach half-maximal inhibition (IC50).
The molecule `CO[C@@H](CN1CCC2(CC1)CCN(C1=C(C)C(=O)OC1)C2=O)c1cnc(-n2cnnn2)cn1` [Example 283] displayed an IC50 of 60 nM.
Turning to `CC1=C(N2CCC3(CCN(C[C@H](OC(C)C)c4ccc(-n5cnnn5)nc4)CC3)C2=O)COC1=O` [Example 285, 8-{(2R)-2-(1-methylethoxy)-2-[6-(1H-tetrazol-1-yl)pyridin-3-yl]ethyl}-2-(4-methyl-5-oxo-2,5-dihydrofuran-3-yl)-1-oxo-2-aza-8-azoniaspiro[4.5]decane], the IC50 was determined as 50 nM.
With `CO[C@H](CN1CCC2(CC1)C[C@@H](C)N(C1=C(C)C(=O)OC1)C2=O)c1ccc(-n2cnnn2)nc1` [Example 287, (3R)-8-{(2S)-2-methoxy-2-[6-(1H-tetrazol-1-yl)pyridin-3-yl]ethyl}-3-methyl-2-(4-methyl-5-oxo-2,5-dihydrofuran-3-yl)-1-oxo-2-aza-8-azoniaspiro[4.5]decane], the IC50 turned out to be 100 nM.
In turn, `CO[C@@H](CN1C2CCC1CC1(CCN(C3=C(C)C(=O)OC3)C1=O)C2)c1ccc(-n2cnnn2)nc1` (stereo partly drawn) [Example 288, (1R,3R,5S)-S-((R)-2-(6-(1H-tetrazol-1-yl)pyridin-3-yl)-2-methoxyethyl)-1′-(4-methyl-5-oxo-2,5-dihydrofuran-3-yl)-8-azaspiro[bicyclo[3.2.1]octane-3,3′-pyrrolidin]-2′-one] registered an IC50 of 30 nM.
Take `CO[C@@H](CN1CCC2(CC1)CCN(C1=C(C)C(=O)OC1)C2=O)c1ccc(-n2cnnn2)nc1` [Example 289, (R)-8-(2-(6-(1H-tetrazol-1-yl)pyridin-3-yl)-2-methoxyethyl)-2-(4-methyl-5-oxo-2,5-dihydrofuran-3-yl)-2,8-diazaspiro[4.5]decan-1-one]: the IC50 was 20 nM.
